# Laboratory results as given in PubChem BioAssay AID434951 (Broad Institute, 2010).
# The source made the active and inactive calls.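 Rule for the calls: active = a fitted half-maximal concentration EC50 for the rise in nuclear signal no higher than ten times the top dose tested; inconclusive = flat fit with activity between 30% and 70%, or unusable fit; inactive = EC50 beyond ten times the top dose.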
# Biological target: Hypoxia-inducible factor 1-alpha (Homo sapiens) (UniProt Q16665)
# Test: activators of HIF1alpha nuclear accumulation, confirmation, imaging, fluorescence, U2OS GFP-HIF1alpha (AID 434951)
# Settings: U2OS GFP-HIF1alpha nuclear intensity, high-content imaging
# Sequence of Hypoxia-inducible factor 1-alpha (Homo sapiens) (Q16665 whole entry, looked up): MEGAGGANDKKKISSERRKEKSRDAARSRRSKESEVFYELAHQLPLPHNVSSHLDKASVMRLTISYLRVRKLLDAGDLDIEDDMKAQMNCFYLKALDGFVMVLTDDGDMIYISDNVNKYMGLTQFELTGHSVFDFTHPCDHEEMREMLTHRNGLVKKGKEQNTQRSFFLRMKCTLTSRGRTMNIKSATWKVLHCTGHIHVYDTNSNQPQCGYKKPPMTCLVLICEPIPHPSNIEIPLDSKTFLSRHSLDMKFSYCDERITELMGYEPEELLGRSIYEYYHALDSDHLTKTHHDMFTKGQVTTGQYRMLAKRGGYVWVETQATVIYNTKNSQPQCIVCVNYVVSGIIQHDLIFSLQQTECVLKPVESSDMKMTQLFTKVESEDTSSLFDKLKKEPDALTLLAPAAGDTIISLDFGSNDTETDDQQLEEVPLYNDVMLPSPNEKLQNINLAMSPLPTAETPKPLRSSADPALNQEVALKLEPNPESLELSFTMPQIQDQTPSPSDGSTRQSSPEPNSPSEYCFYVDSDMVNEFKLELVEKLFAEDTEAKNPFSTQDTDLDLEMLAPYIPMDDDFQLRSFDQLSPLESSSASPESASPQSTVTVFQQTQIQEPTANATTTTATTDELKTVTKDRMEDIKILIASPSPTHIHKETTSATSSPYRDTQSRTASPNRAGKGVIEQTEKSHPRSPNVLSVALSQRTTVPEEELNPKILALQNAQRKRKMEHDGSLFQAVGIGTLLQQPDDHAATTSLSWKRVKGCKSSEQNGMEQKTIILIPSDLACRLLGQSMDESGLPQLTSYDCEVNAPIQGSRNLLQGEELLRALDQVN
row,SMILES,EC50
1,Oc1c(N=Nc2ccccn2)ccc2ccccc12,3.98 µM
2,c1ccc2c(NCCc3c[nH]c4ccccc34)c3ccccc3nc2c1,> 35 µM (inactive)
3,CCOC(=O)c1[nH]cnc1N=Nc1c(O)ccc2ccccc12,2.2 µM
4,COc1ccc(C(CC(=O)Nc2ccccc2OC)n2cccc2)cc1 (stereo not given),> 35 µM (inactive)
5,Cc1cc(=O)[nH]c(SCC(=O)Nc2nonc2C)n1,> 35 µM (inactive)
6,Oc1ccc(CCNc2c3ccccc3nc3ccccc23)cc1O,> 35 µM (inactive)
7,Nc1nc(-c2ccccn2)nc(N)c1Cc1ccc(Cl)cc1Cl,6.12 µM
8,Cc1c(Cl)c([N+](=O)[O-])nn1Cc1ccc(C(=O)N/N=C\c2cc(Cl)ccc2O)o1,9.26 µM
9,CC(=O)Nc1sc(-c2ccccc2)nc1-c1ccccc1,> 35 µM (inactive)
10,Oc1cccc(/C=N/c2c(-c3ccco3)nc3ccccn23)c1,> 35 µM (inactive)
11,COc1ccc(/C=N/NC(=O)c2nc(-c3ccccc3)n(-c3ccccc3)n2)c(O)c1,25.4 µM
12,C=CCNC(=S)N/N=C(\C)c1ccccn1,6.53 µM
13,O=C(N/N=C/c1cc(Br)ccc1O)C(c1ccncc1)N1CCOCC1 (stereo not given),> 35 µM (inactive)
14,COc1ccc(-c2cn3nc(SCC(=O)NCC4CCCO4)ccc3n2)cc1 (stereo not given),> 35 µM (inactive)
15,Cc1cc(C)c2nc(NNC(=O)c3ccc(S(=O)(=O)N4CCCC(C)C4)cc3)sc2c1 (stereo not given),7.23 µM
16,COc1ccc2cc3c(N)nn(C(=O)Cc4c[nH]c5ccccc45)c3nc2c1,> 35 µM (inactive)
17,CC1=NN2C(=N)/C(=C\c3cc(C)n(Cc4ccccc4)c3C)C(=O)N=C2S1,> 35 µM (inactive)

# More lines, now with the values ahead:
row,EC50,SMILES
1,9.27 µM,COc1cnc(-c2ccccn2)nc1N(C)c1ccccc1
2,> 35 µM (inactive),Cc1cccc(N2CCN(c3ccc(N4C(=O)CCCC4=O)cc3[N+](=O)[O-])CC2C)c1 (stereo not given)
3,> 35 µM (inactive),O=C(O)c1cccnc1SCc1ccccc1Cl
4,> 35 µM (inactive),Cn1nc(C(=O)NCCCN2CCCCC2)c2c1-c1ccccc1S(=O)(=O)C2
5,> 35 µM (inactive),O=C(O)c1ccccc1OCCOc1ccccc1C(=O)O
6,13.1 µM,O=C(Nc1nc(NC(=O)c2ccco2)n(-c2ccccc2)n1)c1ccccc1
7,> 35 µM (inactive),Nc1ncnc2c1ncn2CCN1CCOCC1
8,29 µM,CC(C)(C)c1csc(NNC(=O)c2ccc(Br)cc2)n1
9,> 35 µM (inactive),Cn1c(SCC(=O)Nc2ccccc2)nnc1-c1ccc(NC(=O)CCc2ccccc2)cc1
10,> 35 µM (inactive),CCOC(=O)CN1C(=N)N(c2nc(NC(C)C)nc(NC(C)C)n2)CC1=O
11,> 35 µM (inactive),COc1cc(C2CC(=O)N3CN(Cc4ccccc4)CSC3=C2C#N)ccc1OCc1ccccc1 (stereo not given)
12,> 35 µM (inactive),CCn1c(N2CCC(Cc3ccccc3)CC2)nc2c1c(=O)[nH]c(=O)n2C
13,> 35 µM (inactive),Fc1cccc(/C=N/Nc2nccnc2Cl)c1
